Source: patent publication US10556900B2, “TrkA kinase inhibitors, compositions and methods thereof” (Merck Sharp & Dohme Corp., priority 2015, dated 2020)
pIC50: −log10 of the molar value.

Target: human TrkA receptor (Homo sapiens (Human), UniProt P04629)
Experiment: TrkA functional activity, DiscoverX PathHunter assay (NGF-stimulated U2OS cells)
Assay type: cell-based
Details: U2OS cells expressing human TrkA-Prolink, Shc1-EA and p75NTR; compound 1 h, then NGF (~80% of maximal response) 3 h; luminescence
Method: TrkA functional activity was measured using a DiscoverX PathHunter assay. In this assay, U2OS cells express the human TrkA receptor as a fusion with the weakly complementing fragment of B-galactosidase, which DiscoverX calls “Prolink (PK)”; additionally, Shc1 is fused with a larger fragment, which is called “Enzyme Acceptor (EA)”. Activation of the TrkA receptor, upon NGF addition, results in the kinase domain being phosphorylated, resulting in subsequent recruitment of Shc1-EA protein. That recruitment results in an active B-galactosidase enzyme that is detected by addition of a chemiluminescent substrate. The human p75^NTR protein was also expressed as a co-receptor for NGF.
All reagents were purchased from DiscoverX, except for the receptor agonists (NGF, BDNF, NT3) which were purchased from Peprotech. Cells were expanded and frozen into cryovials, and stored in the vapor phase of liquid nitrogen, and thawed immediately before use. Thawed cells were added to a 384-well plate at 7500 cells/well, and allowed to incubate overnight. Compound at various concentrations was added the following morning and allowed to incubate on cells for 1 h. Then, NGF was added at a concentration sufficient to elicit ˜80% of a maximal response and allowed to incubate for 3 h at ambient temperature. DiscoverX PathHunter detection reagent was then added and the plate was further incubated for 1 h in the dark. The plate was then read via luminescence on the Perkin Elmer Envision.

Chain of human TrkA receptor (P04629 33-796): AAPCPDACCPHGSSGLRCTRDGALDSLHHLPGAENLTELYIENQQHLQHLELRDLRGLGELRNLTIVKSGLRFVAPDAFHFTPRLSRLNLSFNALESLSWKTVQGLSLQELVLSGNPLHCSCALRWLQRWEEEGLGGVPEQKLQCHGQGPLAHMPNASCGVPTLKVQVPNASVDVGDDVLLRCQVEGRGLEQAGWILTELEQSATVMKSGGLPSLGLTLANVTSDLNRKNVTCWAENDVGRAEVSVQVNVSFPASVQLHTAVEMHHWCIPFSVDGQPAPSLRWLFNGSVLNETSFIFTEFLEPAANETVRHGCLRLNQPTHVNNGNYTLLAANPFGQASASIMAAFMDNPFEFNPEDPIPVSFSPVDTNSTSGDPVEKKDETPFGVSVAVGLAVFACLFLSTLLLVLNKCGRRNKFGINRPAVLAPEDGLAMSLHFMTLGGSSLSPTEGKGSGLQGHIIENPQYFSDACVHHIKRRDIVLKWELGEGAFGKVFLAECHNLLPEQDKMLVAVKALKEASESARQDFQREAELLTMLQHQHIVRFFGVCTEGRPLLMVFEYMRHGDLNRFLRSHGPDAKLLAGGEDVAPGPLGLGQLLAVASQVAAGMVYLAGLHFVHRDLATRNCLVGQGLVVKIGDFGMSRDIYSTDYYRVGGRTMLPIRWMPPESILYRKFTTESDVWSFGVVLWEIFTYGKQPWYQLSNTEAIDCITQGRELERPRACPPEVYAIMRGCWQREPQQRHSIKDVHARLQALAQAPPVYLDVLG

SMILES | pIC50
Cn1ccc(-c2cc(C(=O)Nc3c(-c4ccccc4)ccn4c(C(N)=O)cnc34)ccc2C(F)(F)F)n1 [Compound 12, 8-({[3-(1-methyl-1H-pyrazol-3-yl)-4-(trifluoromethyl)phenyl]carbonyl}amino)-7-phenylimidazo[1,2-a]pyridine-3-carboxamide] | 8.24
Cn1ccc(-c2cc(C(=O)Nc3c(-c4ccccc4)ccn4c(C(C)(C)O)cnc34)ccc2C(F)(F)F)n1 [Compound 32, N-[3-(1-hydroxy-1-methylethyl)-7-phenylimidazo[1,2-a]pyridin-8-yl]-3-(1-methyl-1H-pyrazol-3-yl)-4-(trifluoromethyl)benzamide] | 8.21
CC(C)(O)c1cc2cc(-c3ccccc3)c(NC(=O)c3cc(-c4ncccn4)c(C(F)(F)F)cc3F)cc2[nH]1 [Compound 44, 2-Fluoro-N-(2-(2-hydroxypropan-2-yl)-5-phenyl-1H-indol-6-yl)-5-(pyrimidin-2-yl)-4-(trifluoromethyl)benzamide] | 7.02
Cn1ccc(-c2cc(C(=O)Nc3c(-c4ccccc4)ccc4nc(C(C)(C)O)cn34)ccc2C(F)(F)F)n1 [Compound 1, N-(2-(2-Hydroxypropan-2-yl)-6-phenylimidazo[1,2-a]pyridin-5-yl)-3-(1-methyl-1H-pyrazol-3-yl)-4-(trifluoromethyl)benzamide] | 7.77
CC(O)c1cnc2c(NC(=O)c3cc(-c4ccccn4)c(C(F)(F)F)cc3F)c(-c3ccccc3)ccn12 (single isomer, unassigned) [Compound 29, (R) or (S)-2-fluoro-N-[3-(1-hydroxyethyl)-7-phenylimidazo[1,2-a]pyridin-8-yl]-5-pyridin-2-yl-4-(trifluoromethyl)benzamide] | 8.77
Cn1ccc(-c2cc(C(=O)Nc3c(-c4ccccc4)ccc4c(C(C)(C)O)cnn34)ccc2C(F)(F)F)n1 [Compound 37, N-[3-(1-hydroxy-1-methylethyl)-6-phenylpyrazolo[1,5-a]pyridin-7-yl]-3-(1-methyl-1H-pyrazol-3-yl)-4-(trifluoromethyl)benzamide] | 8.35
O=C(Nc1c(-c2ccccc2)ccn2c(CO)cnc12)c1cc(-c2ncccn2)c(C(F)(F)F)cc1F [Compound 8, 2-Fluoro-N-(3-(hydroxymethyl)-7-phenylimidazo[1,2-a]pyridin-8-yl)-5-(pyrimidin-2-yl)-4-(trifluoromethyl)benzamide] | 8.21
Cn1ccc(-c2cc(C(=O)Nc3c(-c4ccccc4)ccn4ccnc34)ccc2C(F)(F)F)n1 [Compound 34, 3-(1-Methyl-1H-pyrazol-3-yl)-N-(7-phenylimidazo[1,2-a]pyridin-8-yl)-4-(trifluoromethyl)benzamide] | 7.28
CC(O)c1n[nH]c2c(NC(=O)c3cc(-c4ncccn4)c(C(F)(F)F)cc3F)c(-c3ccccc3)ccc12 (racemic) [Compound 46, (R) and (S)-2-Fluoro-N-(3-(1-hydroxyethyl)-6-phenyl-1H-indazol-7-yl)-5-(pyrimidin-2-yl)-4-(trifluoromethyl)benzamide] | 8.54
CC(C)(O)c1cnc2c(NC(=O)c3cc(-c4ccccn4)c(C(F)(F)F)cc3Cl)c(-c3ccccc3)ccn12 [Compound 18, 2-chloro-N-[3-(1-hydroxy-1-methylethyl)-7-phenylimidazo[1,2-a]pyridin-8-yl]-5-pyridin-2-yl-4-(trifluoromethyl)benzamide] | 8.17
CC(O)c1cnc2c(NC(=O)c3cc(-c4cc[nH]n4)c(C(F)(F)F)cc3F)c(-c3ccccc3)ccn12 (single isomer, unassigned) [Compound 28, (R) or (S)-2-fluoro-N-[3-(1-hydroxyethyl)-7-phenylimidazo[1,2-a]pyridin-8-yl]-5-(1H-pyrazol-3-yl)-4-(trifluoromethyl)benzamide] | 8.74
CC(C)(O)c1cnc2c(NC(=O)c3cc(-c4ncccn4)c(C(F)(F)F)cc3F)c(-c3ccc(F)cc3)ccn12 [Compound 54, 2-fluoro-N-[7-(4-fluorophenyl)-3-(1-hydroxy-1-methylethyl)imidazo[1,2-a]pyridin-8-yl]-5-pyrimidin-2-yl-4-(trifluoromethyl)benzamide] | 7.24
O=C(Nc1c(-c2ccccc2)ncn2c(CO)cnc12)c1cc(-c2ncccn2)c(C(F)(F)F)cc1F [Compound 69, 2-Fluoro-N-(3-(hydroxymethyl)-7-phenylimidazo[1,2-c]pyrimidin-8-yl)-5-(pyrimidin-2-yl)-4-(trifluoromethyl)benzamide] | 8.19
Cn1ccc(-c2cc(C(=O)Nc3cn4cncc4nc3-c3ccccc3)c(F)cc2C(F)(F)F)n1 [Compound 64, 2-Fluoro-5-(1-methyl-1H-pyrazol-3-yl)-N-(2-phenylimidazo[1,5-a]pyrimidin-3-yl)-4-(trifluoromethyl)benzamide] | 8.26
Cn1ccc(-c2cc(C(=O)Nc3c(-c4ccccc4)ccc4sc(C(C)(C)O)nc34)ccc2C(F)(F)F)n1 [Compound 4, N-(2-(2-Hydroxypropan-2-yl)-5-phenylbenzo[d]thiazol-4-yl)-3-(1-methyl-1H-pyrazol-3-yl)-4-(trifluoromethyl)benzamide] | 7.17
Cn1ccc(-c2cc(C(=O)Nc3c(-c4ccccc4)ccn4cc(C(C)(C)O)nc34)ccc2C(F)(F)F)n1 [Compound 2, N-(2-(2-Hydroxypropan-2-yl)-7-phenylimidazo[1,2-a]pyridin-8-yl)-3-(1-methyl-1H-pyrazol-3-yl)-4-(trifluoromethyl)benzamide] | 6.86
O=C(Nc1c(-c2ccc(F)cc2)ccn2c(CO)cnc12)c1cc(-c2ncccn2)c(C(F)(F)F)cc1F [Compound 51, 2-Fluoro-N-(7-(4-fluorophenyl)-3-(hydroxymethyl)imidazo[1,2-a]pyridin-8-yl)-5-(pyrimidin-2-yl)-4-(trifluoromethyl)benzamide] | 7.22
Cn1ccc(-c2cc(C(=O)Nc3c(-c4ccccc4)ccc4cc(C(C)(C)O)[nH]c34)ccc2C(F)(F)F)n1 [Compound 42, N-(2-(2-Hydroxypropan-2-yl)-6-phenyl-1H-indol-7-yl)-3-(1-methyl-1H-pyrazol-3-yl)-4-(trifluoromethyl)benzamide] | 9.18
Cn1ccc(-c2cc(C(=O)Nc3cn4c(CO)ncc4nc3-c3ccccc3)c(F)cc2C(F)(F)F)n1 [Compound 61, 2-Fluoro-N-(6-(hydroxymethyl)-2-phenylimidazo[1,5-a]pyrimidin-3-yl)-5-(1-methyl-1H-pyrazol-3-yl)-4-(trifluoromethyl)benzamide] | 8.40
CC(O)c1nc2c(NC(=O)c3ccc(C(F)(F)F)c(-c4ccn(C)n4)c3)c(-c3ccccc3)ccc2s1 (single isomer, unassigned) [Compound 5, (R and S)—N-(2-(1-Hydroxyethyl)-5-phenylbenzo[d]thiazol-4-yl)-3-(1-methyl-1H-pyrazol-3-yl)-4-(trifluoromethyl)benzamide] | 7.89
Cn1ccc(-c2cc(C(=O)Nc3c(-c4ccccc4)ccn4c(C(N)=O)cnc34)c(F)cc2C(F)(F)F)n1 [Compound 22, 8-({[2-fluoro-5-(1-methyl-1H-pyrazol-3-yl)-4-(trifluoromethyl)phenyl]carbonyl}amino)-7-phenylimidazo[1,2-a]pyridine-3-carboxamide] | 9.29
CC(O)c1cnc2c(NC(=O)c3cc(-c4ncccn4)c(C(F)(F)F)cc3F)c(-c3ccccc3)ccn12 (single isomer, unassigned) [Compound 9, (R) or (S)-2-Fluoro-N-(3-(1-hydroxyethyl)-7-phenylimidazo[1,2-a]pyridin-8-yl)-5-(pyrimidin-2-yl)-4-(trifluoromethyl)benzamide] | 8.48
CC(O)c1cnc2c(NC(=O)c3cc(-c4ccn(C)n4)c(C(F)(F)F)cc3F)c(-c3ccccc3)ccn12 (single isomer, unassigned) [Compound 25, (R) or (S)-2-fluoro-N-[3-(1-hydroxyethyl)-7-phenylimidazo[1,2-a]pyridin-8-yl]-5-(1-methyl-1H-pyrazol-3-yl)-4-(trifluoromethyl)benzamide] | 9.09
Cn1ccc(-c2cc(C(=O)Nc3c(-c4ccccc4)ccn4c(C(C)(C)O)cnc34)c(F)cc2C(F)(F)F)n1 [Compound 16, 2-fluoro-N-[3-(1-hydroxy-1-methylethyl)-7-phenylimidazo[1,2-a]pyridin-8-yl]-5-(1-methyl-1H-pyrazol-3-yl)-4-(trifluoromethyl)benzamide] | 9.70
CC(O)c1n[nH]c2c(NC(=O)c3ccc(C(F)(F)F)c(-c4ccn(C)n4)c3)c(-c3ccccc3)ccc12 (single isomer, unassigned) [Compound 49, (R) or (S)-N-[3-(1-hydroxyethyl)-6-phenyl-1H-indazol-7-yl]-3-(1-methyl-1H-pyrazol-3-yl)-4-(trifluoromethyl)benzamide] | 8.70
Cn1ccc(-c2cc(C(=O)Nc3c(-c4ccccc4)ccc4nc(C(C)(C)O)sc34)ccc2C(F)(F)F)n1 [Compound 3, N-(2-(2-Hydroxypropan-2-yl)-6-phenylbenzo[d]thiazol-7-yl)-3-(1-methyl-1H-pyrazol-3-yl)-4-(trifluoromethyl)benzamide] | 6.49
Cn1ccc(-c2cc(C(=O)Nc3c(-c4ccccc4)ccc4c(CO)cnn34)c(F)cc2C(F)(F)F)n1 [Compound 39, 2-fluoro-N-[3-(hydroxymethyl)-6-phenylpyrazolo[1,5-a]pyridin-7-yl]-5-(1-methyl-1H-pyrazol-3-yl)-4-(trifluoromethyl)benzamide] | 9.48
